The results in this text go back to patent US8207154B2, “Catatonic bacteriochlorophyll derivatives” (Yeda Research and Development Co., Ltd., priority 2005, dated 2012).

Where two headings read alike, the source gives them in different places.

Data set [1] can be described thus: Octanol/water partition ratio. Format: physicochemical. From the text: Optical absorption in water, λ (relative absorption): 753 (1.00), 519 (0.30), 354 (1.25) nm. Octanol/water partition ratio is 40/60. ESI-MS (+): 413.62 ([M-2×citrate]/2). Octanol/water partition ratio is 50/50. ESI-MS (+): 455.89 ([M-2×citrate]/2). Octanol/water partition ratio is 75/25.
Another data set deals with St. albus. The data set can be described thus: Phototoxicity on Gram-positive bacteria, colony counting. Format: cell-based. As to conditions: 1 h incubation, illuminated 15 min at 70 mW/cm^2; read-out: Kd (phototoxicity). As for the experimental part:
(§1) (ii) Bacterial cultures. Bacteria of strains St. albus and E. coli XL-1 were cultured in liquid LB medium (E. coli in LB containing 12.5 μg tetracyclin/ml) to a final density of OD600 nm=0.5-0.9 (1 OD=8×10^8 bacteria/ml). The bacteria were spun down (4000×g, 5 min.) and resuspended in PBS.
(§2) (b) Bacterial. To determine the photodynamic efficacy, bacteria were diluted to aliquots of 300 μl containing about 10^7 bacteria, and incubated with increasing concentrations of sensitizer in plastic test tubes in the dark for 1 h at room temperature, and then illuminated at 70 mW/cm^2 for 15 min. Samples of the treated bacteria cultures were subsequently plated at different dilutions (50-200 bacteria/plate) on LB agar and cultured for 24 h at 37° C. for determination of bacterial survival by colony counting. Triplicate determinations were conducted and representative experiments are shown.
(§3) The phototoxicity of positively-charged compound 5 was tested on Gram-positive St. albus and Gram-negative E. coli bacteria in comparison to the negatively-charged Pd 3^1-oxo-15-methoxycarbonylmethyl-Rhodobacteriochlorin 13^1-(2-sulfoethyl)amide dipotassium salt (described in PCT/IL03/00973). Bacteria were incubated with increasing concentrations of the sensitizers for 1 h and illuminated or kept in the dark. […] Gram-positive bacteria St. albus, was 100 times more sensitive to compound 5 than Gram-negative E. coli. No phototoxicity was observed when bacteria were incubated and treated with the same sensitizers' concentration range without illumination (dark controls).

The test system of the next data set is E. coli. The data set can be described thus: Phototoxicity on Gram-negative bacteria, colony counting. It counts as cell-based, E. coli XL-1. To be noted: 1 h incubation, illuminated. As for the experimental part: as §1, §2, §3
A further data set has as its system H5V cells. The data set can be described thus: Phototoxicity assay (PDT efficacy at two incubation times), neutral red survival. As to conditions: then 10 min illumination, 12 J/cm^2. It counts as cell-based, mouse.
[2] abbreviates: 15 min incubation in the dark, read-out: IC50 15 min.
[3] abbreviates: 3 h incubation in the dark, read-out: IC50 3 hours.

For “3^1-Oxo-15-methoxycarbonylmethyl-Rhodobacteriochlorin 13^1,17^3-di(3-N^3-trimethylammoniumpropyl)amide dicitrate salt [Compound 7]”, the Octanol/water partition ratio in data set [1] is listed as 50/50.
Regarding `CCC1C2=Cc3c(C)c(C(=O)NCCS(=O)(=O)[O-])c4[n]3[Pd][n]3c(c(C)c(C(C)=O)c3=CC(=N2)C1C)=CC1=NC(=C4CC(=O)OC)C(CCC(=O)[O-])C1C.[K+].[K+]` (centres unmarked) [Pd 3^1-oxo-15-methoxycarbonylmethyl-Rhodobacteriochlorin 13^1-(2-sulfoethyl)amide dipotassium salt, reference compound], the phototoxic killing concentration at St. albus is 300 nM. Also, the “effectiveness against Gram-negative E. coli” value in the data set on E. coli is reported as “not against Gram-negative E. coli”.
For the compound “Palladium 3^1-oxo-15-methoxycarbonylmethyl-Rhodobacteriochlorin-13^1-(2-N^2-dimethylaminoethyl)amide-17^3-((R)-2-hydroxypropyl)amide [Compound 68]”, the figures for the IC50 in the data set with H5V cells (setting [2]) and in the data set on H5V cells (setting [3]) were 500 nM and 160 nM, respectively.
As for “Palladium 3^1-oxo-15-methoxycarbonylmethyl-Rhodobacteriochlorin-13^1-(2-N^2-dimethylaminoethyl)amide-17^3-(glycosyl) amide [Compound 75]”, the IC50 with H5V cells (setting [2]) is 500 nM; with H5V cells (setting [3]) it was 160 nM.
For “Palladium 3^1-oxo-15-methoxycarbonylmethyl-Rhodobacteriochlorin-13^1-(2-N^3-trimethylammoniumethyl)amide acetate (salt) [Compound 24]” the same measures were 2400 nM and 1200 nM.
The matching figures for “Palladium 3^1-oxo-15-methoxycarbonylmethyl-Rhodobacteriochlorin-13^1-(3-aminopropyl)amide-17^3-(2,3-dihydroxypropyl)amide [Compound 60]”: 620 nM and 240 nM.

Broadly, the IC50 is the midpoint of a concentration-inhibition curve.
